In patent US20220170859A1, “PARTICLE LABELING REAGENT, PARTICLE DYEING METHOD, AND MICROSCOPIC SYSTEM” (SONY GROUP CORPORATION, priority 2019, published 2022):

Test system: Jurkat cells
Conditions: Jurkat cells dyed with 50 μM reagent in PBS; UV 365 nm 10 minutes vs no UV
Protocol: 1 mL of Jurkat cells 3.0×10^6 cells/PBS (−), the Jurkat cells being human leukemia T cell lines, was prepared in a 1.5 mL Eppendorf tube, and centrifuged at 200×g for five minutes. The supernatant was removed, and 1 mL of a 50 μM MeNPOC-biotin-sulfo-NHS ester.Na/PBS solution was added thereto. The mixture was shielded from light by an aluminum foil, and allowed to stand at room temperature for 20 minutes. The mixture was centrifuged at 200×g for five minutes, and the supernatant was removed. The residue was resuspended in 1 mL of PBS (−) and centrifuged again at 200×g for five minutes, and the supernatant was removed. PBS (−) was added thereto, and the cell concentration was measured with a cell counter, and then the concentration was adjusted to 1.5×10^5 cells/mL. The cells were added dropwise at 0.1 mL/well to a COC film bottom 96 well plate that had been soaked with 1% BSA overnight, and centrifuged at 120×g for one minute to precipitate the cells on a well bottom surface. Subsequently, the sample was irradiated with UV light from the well bottom surface side for 10 minutes using a UV-LED (LED 365-SPT, Optocode, λp=365 nm, about 17 mW/cm^2). As a comparison, a sample not irradiated with UV light was allowed to stand for 10 minutes. The cell suspension was collected from the wells, and PBS was added thereto to adjust the volume to 0.8 mL. […]

MeNPOC-biotin-sulfo-NHS ester sodium salt
fluorescence intensity (adsorption of Alexa Fluor 488 labeled streptavidin): fluorescence intensity changed depending on presence or absence of UV irradiation
